Here are results for 26 compounds from BindingDB's records for doi:10.1021/acs.jmedchem.8b00106 (China Pharmaceutical University, 2018).

For orientation: EC50 means the concentration that produces a half-maximal response.

The test is described as follows: Agonist activity at VDR in human HL60 cells assessed as induction of cell differentiation after 96 hrs by NBT assay.

`CCn1c(C(=O)N(CCC#N)CCC#N)ccc1C(CC)(CC)c1ccc(OCCC(O)(CC)CC)c(C)c1`: the EC50 is greater than 10000 nM.
Turning to `CCn1c(C(=O)N(C)CCO)ccc1C(CC)(CC)c1ccc(OCCC(O)(CC)CC)c(C)c1`, the EC50 amounted to 53 nM.
Regarding `CCn1c(C(=O)Nc2cccc(C(F)(F)F)c2)ccc1C(CC)(CC)c1ccc(OCCC(O)(CC)CC)c(C)c1`, the EC50 was determined as 5900 nM.
As for `CCN(CC)CCNC(=O)c1ccc(C(CC)(CC)c2ccc(OCCC(O)(CC)CC)c(C)c2)n1CC`, the figure is 2.3 nM; as for `CCn1c(C(=O)NC(C)CO)ccc1C(CC)(CC)c1ccc(OCCC(O)(CC)CC)c(C)c1` (stereo unspecified), 96 nM.
As for `CCn1c(C(=O)N(C)CC(=O)O)ccc1C(CC)(CC)c1ccc(OCCC(O)(CC)CC)c(C)c1`, the figure is 89 nM; as for `CCn1c(C(=O)NCC#N)ccc1C(CC)(CC)c1ccc(OCCC(O)(CC)CC)c(C)c1`, 1080 nM; as for `C#CCCOC(=O)c1ccc(C(CC)(CC)c2ccc(OCCC(O)(CC)CC)c(C)c2)n1CC`, 6030 nM.
As for `CCn1c(C(=O)NC(C)CO)ccc1C(CC)(CC)c1ccc(OCC(O)C(C)(C)C)c(C)c1` (stereo unspecified), the figure is 8.5 nM.
As for `CCC(C)C(NC(=O)c1ccc(C(CC)(CC)c2ccc(OCCC(O)(CC)CC)c(C)c2)n1CC)C(=O)OC` (stereo unspecified), the EC50 was greater than 10000 nM.
As for `CCC(C)C(NC(=O)c1ccc(C(CC)(CC)c2ccc(OCCC(O)(CC)CC)c(C)c2)n1CC)C(=O)O` (stereo unspecified), the figure is 860 nM; as for `CCn1c(C(=O)Oc2ccc(CC(=O)OC)cc2)ccc1C(CC)(CC)c1ccc(OCCC(O)(CC)CC)c(C)c1`, greater than 10000 nM.
Turning to `CCn1c(C(=O)NC(CO)CCO)ccc1C(CC)(CC)c1ccc(OCCC(O)(CC)CC)c(C)c1` (stereo unspecified), the EC50 was 2490 nM.
As for `CCOC(=O)CN(C)C(=O)c1ccc(C(CC)(CC)c2ccc(OCCC(O)(CC)CC)c(C)c2)n1CC`, the figure is 520 nM; as for `CCOc1ccc(NC(=O)c2ccc(C(CC)(CC)c3ccc(OCCC(O)(CC)CC)c(C)c3)n2CC)cc1`, 1630 nM.
As for `CCn1c(C(=O)NC(C)C(=O)O)ccc1C(CC)(CC)c1ccc(OCCC(O)(CC)CC)c(C)c1` (stereo unspecified), the figure is 66 nM; as for `CCn1c(C(=O)NC(CC(=O)O)C(=O)OC)ccc1C(CC)(CC)c1ccc(OCCC(O)(CC)CC)c(C)c1` (stereo unspecified), 26 nM; as for `CCn1c(C(=O)Nc2ccc(OC(F)(F)F)cc2)ccc1C(CC)(CC)c1ccc(OCCC(O)(CC)CC)c(C)c1`, greater than 10000 nM.
In the case of `C=CCN(C)C(=O)c1ccc(C(CC)(CC)c2ccc(OCCC(O)(CC)CC)c(C)c2)n1CC` it was greater than 10000 nM; in that of `CCN(CC)CCCNC(=O)c1ccc(C(CC)(CC)c2ccc(OCCC(O)(CC)CC)c(C)c2)n1CC`, 11 nM.
As to `CCC(C)C(CO)NC(=O)c1ccc(C(CC)(CC)c2ccc(OCCC(O)(CC)CC)c(C)c2)n1CC` (stereo unspecified), the 50% effective concentration (EC50) turned out to be 450 nM.
On to `CCn1c(C(=O)NCCN)ccc1C(CC)(CC)c1ccc(OCCC(O)(CC)CC)c(C)c1`, for which the EC50 amounted to 156 nM.
As to `CCn1c(C(=O)NCCCN(C)C)ccc1C(CC)(CC)c1ccc(OCCC(O)(CC)CC)c(C)c1`, the concentration giving a half-maximal response (EC50) was 5 nM.
In the case of `CCn1c(C(=O)NCCCN2CCOCC2)ccc1C(CC)(CC)c1ccc(OCCC(O)(CC)CC)c(C)c1` it was 238 nM; in that of `CCn1c(C(=O)NCCN(C)C)ccc1C(CC)(CC)c1ccc(OCCC(O)(CC)CC)c(C)c1`, 82 nM.
Take `C#CC(C)OC(=O)c1ccc(C(CC)(CC)c2ccc(OCCC(O)(CC)CC)c(C)c2)n1CC` (stereo unspecified): the EC50 turned out to be 2650 nM.
